This passage reports IC50 results from US7482347B2, “Piperazine derivatives with CCR-3 inhibiting activity” (priority 2004, dated 2009).

As usually defined, the pIC50 is the negative decadic logarithm of the IC50, by convention in mol/L.

The experiment concerns the target T1, human CCR-3 (Homo sapiens, UniProt P51677).
T1 construct: expressed in transfected cells; membranes prepared
T1 sequence (P51677 1-355): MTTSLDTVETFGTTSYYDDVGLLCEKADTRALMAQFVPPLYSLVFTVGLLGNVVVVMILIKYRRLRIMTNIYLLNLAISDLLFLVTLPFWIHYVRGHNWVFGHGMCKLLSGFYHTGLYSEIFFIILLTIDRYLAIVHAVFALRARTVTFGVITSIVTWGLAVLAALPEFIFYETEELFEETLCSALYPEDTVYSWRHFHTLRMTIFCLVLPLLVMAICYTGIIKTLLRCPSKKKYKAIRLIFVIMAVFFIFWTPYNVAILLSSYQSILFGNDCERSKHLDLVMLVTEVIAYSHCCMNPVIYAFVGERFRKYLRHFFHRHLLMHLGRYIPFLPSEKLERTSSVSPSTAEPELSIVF
In words: [125I]-human eotaxin binding SPA assay on membranes of RBL-2H3 cells stably expressing CCR3. The following applies: membranes of RBL-2H3 cells expressing CCR3, 50 pM [125I]-human eotaxin, 4 hours at room temperature, read-out: IC50 (inhibition of binding of [125I]-human eotaxin to CCR-3). The text has this:
Recombinant cells expressing human CCR-3 are captured by wheatgerm agglutinin (WGA) polyvinyltoluidene (PVT) SPA beads (available from Amersham), through a specific interaction between the WGA and carbohydrate residues of glycoproteins on the surface of the cells. [^125I]-human eotaxin (available from Amersham) binds specifically to CCR-3 receptors bringing the [^125I]-human eotaxin in close proximity to the SPA beads. Emitted â-particles from the [^125I]-human eotaxin excite, by its proximity, the fluorophore in the beads and produce light.
Preparation of Assay Buffer: 5.96 g HEPES and 7.0 g sodium chloride are dissolved in distilled water and 1 M aqueous CaCl2 (1 ml) and 1M aqueous MgCl2 (5 ml) are added. The pH is adjusted to 7.6 with NaOH and the solution made to a final volume of 1 l using distilled water. 5 g bovine serum albumin and 0.1 g sodium azide are then dissolved in the solution and the resulting buffer stored at 4° C. A COMPLETE™ protease inhibitor cocktail tablet (available from Boehringer) is added per 50 ml of the buffer on the day of use. […]
The assay is performed in a final volume of 250 μl per well of an OPTIPLATE™ microplate (ex Canberra Packard). […] The resulting scintillations are counted using a Canberra Packard TopCount, each well being counted for 1 minute. […]

pIC50: −log10 of the molar value.

On to `COc1ccc(OC)c(S(=O)(=O)N2CCC(CN3CCN(Cc4ccc(F)cc4)CC3)CC2)c1` [Example 3, 1-[1-(2,5-dimethoxybenzenesulfonyl)piperidinyl-4-ylmethyl]-4-(4-fluorobenzyl)piperazine], for which the negative-log IC50 (pIC50) was 7.25. Then `Cc1noc(C)c1S(=O)(=O)N1CCC(CN2CCN(Cc3ccc(F)cc3)CC2)CC1` [Example 1, 1-[1-(3,5-Dimethylisoxazole-4-sulfonyl)-piperdin-4-yl-methyl]-4-(4-fluorobenzyl)-piperazine], with 6.59.
